Results as given in patent US10172835B2, “Anticancer agent composition” (J-Pharma Co., Ltd., priority 2014, dated 2019).

How the values were obtained:
[1] = tested on: freshly isolated tPTEN−/− tumor cells; assay: WST-1 cell viability of freshly isolated primary tPTEN−/− tumor cells; assay type: cell-based, murine; details: concentration dependent manner
Experimental: (§1) Two different assays were employed: i) In a 96-well plate format, cells (4.0±0.1×10^4 per well; 100 μL) were incubated with effectors (48 h, 37° C.; n=4 per experiment) and then WST-1 reagent (10 μL; Roche Diagnostics) added to each well of 96-well plates, incubated, and the formazan production was measured at 490 nm; and ii) cells (2.0±0.1×10^4 per well; 100 μL) were incubated with effectors (48 h, 37° C.; n=4 per experiment) and then bromodeoxyuridine reagent (10 μL/well; Roche Diagnostics) was added to each well and incubated (8 h, 37° C.). The cells were then fixed, denatured and incubated with anti-BrdU-conjugated with peroxidase (POD) antibody (100 μL/well). Colorimetric substrate (TMB: tetramethyl-benzidine; 100 μL/well) was added and BrdU incorporation quantified via optical density measurement (450 nm) which corresponds to DNA synthesis and proliferating cells.

[2] = tested on: c-myc; assay: Western blot of c-myc levels, KO99L cells; assay type: cell-based, murine; details: COMPOUND-JP 10.0 μM 2.0-24 h; Velcade 8 nM 24 h; KU0063794 10.0 μM; MK-2206 10.0 μM; rapamycin 100 nM
Experimental: (§2) Cell extracts were prepared using a cell lysis buffer (50 mM HEPES, pH 7.4, 150 mM NaCl, 20 mM EDTA, 100 mM NaF, 10 mM Na3VO4, 0.5% nonyl phenoxypolyethoxylethanol (NP40) supplemented with a cocktail of protease inhibitors. After SDS-PAGE separation and transfer to nitrocellulose immunoblotting was performed using the following antibodies against: Akt (Cell Signaling Technologies, #9272), CHOP (#2895), cleaved caspase 3 (#9664), c-Myc (#9402), eIF2a (#9721), 4EBP1 (#9644), LC3A/B (#12741), PARP (#9542), pJnk (T183/Y185) (#9251), pSer235-236-S6RP (#4856), pSer473-Akt (#9271), pSer65-4EBP1 (#9451) and S6RP (#2217); Bax (Sigma-Aldrich, B8429); PUMA (Abcam, ab54288); Bak (Millipore, 06536); ATF4 (Santa Cruz Biotechnologies, sc200), GADD34 (sc8327), Hsp60 (sc-1722), Hsp90 (sc-13119) and XBP1 (sc-7160); ATF6 (Imgenex, IMG-273).

[3] = tested on: CHOP; assay: Western blot of CHOP protein levels, KO99L cells; assay type: cell-based, murine
Experimental: as §2

[4] = tested on: KO99-RJ cells; assay: WST-1 cell viability of COMPOUND-JP-resistant KO99-RJ cells; assay type: cell-based, murine; details: Mus musculus, 48 h, read-out: decrease in cell viability
Experimental: as §1

[5] = tested on: HT-29 cell derived from human large intestine cancer; assay: Tumor growth in nude mouse inoculated subcutaneously with HT-29 cells; assay type: in vivo; details: compared with untreated control group
Experimental: A HT-29 cell was inoculated subcutaneously into a mouse, and the transition of the size of the tumor lump was measured with time from the day on which the tumor has grown to a certain size, when each of COM-JP and 5-FU was used alone or in combination.

[6] = tested on: caspase 3; assay: Active caspase 3 staining with Red-DEVD-fmk, KO99L cells; assay type: cell-based, murine; details: countered by QvD-OPH
Experimental: Cells (1.0±0.1×10^6 per well; 1.0 mL) were stimulated with different COMPOUND-JP doses with or without caspase3 inhibitor Qvd-OH (20 μM). Cells were then stained with caspase 3 inhibitor conjugated (RED-DEVD-FMK; Biovision) and incubated (1.0 h, 37° C. at 5% CO2). Cells were washed with Wash Buffer, then centrifuged (3000 rpm, 5.0 min) and stained with annexin V-FITC (10 μL/mL; Miltenyi Biotech) for 30 min and DAPI (1.0 μg/mL) added prior to examination via a MacsQuant Analyser.

Nc1cc(COc2c(Cl)cc(C[C@H](N)C(=O)O)cc2Cl)c2oc(-c3ccccc3)nc2c1 [COMPOUND-JP, O-(5-amino-2-phenylbenzoxazole-7-yl)methyl-3,5-dichloro-L-tyrosine]
cell viability in freshly isolated tPTEN−/− tumor cells [1]: influenced cell viability | c-myc protein level [2]: decreased | COMPOUND-JP mediated CHOP induction upon EAA supplementation ([3]; 10 μM, complete medium plus EAA): prevented CHOP induction | CHOP expression, time course ([3]; FIG. 5A, COMPOUND-JP 10.0 μM, L-Asp, Erw 2.5 units/ml, 2.0-24 h): rapidly induced CHOP expression | CHOP induction ([3]; FIG. 5B, COMPOUND-JP 5.0 and 10.0 μM, L-Asp 2.5 units/ml, rapamycin 10.0 nM, MK-2206 10.0 μM, KU0063794 10.0 μM): profound and COMPOUND-JP dose dependent induction | cytotoxicity at 40 µM [4]: ~40% | increase of the tumor, single administration [5]: more significant decrease | cell-associated fluorescence via Red-DEVD-fmk (caspase 3 activation) [6]: dose and time-dependent
